Data published in US11464749B2, “Bismuth-thiol compositions and methods of use” (Microbion Corporation, priority 2018, dated 2022).
Converted amounts (≈) assume the structure as drawn.

Test system: Haemophilus influenzae
Assay: Broth microdilution MIC against Haemophilus influenzae clinical isolates
Conditions: for MIC50 / MIC90: Haemophilus influenzae; for MIC: all evaluated H. influenzae strains, incl. BLNAR, range tested 64-0.06

Row | Compound | MIC50 | MIC90 | MIC
1 | CC[C@H]1OC(=O)[C@H](C)[C@@H](O[C@H]2C[C@@](C)(OC)[C@@H](O)[C@H](C)O2)[C@H](C)[C@@H](O[C@@H]2O[C@H](C)C[C@H](N(C)C)[C@H]2O)[C@](C)(O)C[C@@H](C)CN(C)[C@H](C)[C@@H](O)[C@]1(C)O [azithromycin, Azithromycin] | 2 µg/mL (≈ 2.67 µM) | 2 µg/mL (≈ 2.67 µM) | –
2 | bismuth-1,2-ethanedithiol, 2-mercaptopyridine N-oxide [BisEDT/PYR] | – | – | < 0.06 µg/mL
3 | CO/N=C(\C(=O)N[C@@H]1C(=O)N2C(C(=O)O)=C(COC(N)=O)CS[C@H]12)c1ccco1 [cefuroxime, Cefuroxime] | 4 µg/mL (≈ 9.43 µM) | 16 µg/mL (≈ 37.7 µM) | –
4 | bismuth-2,3-butanedithiol, 2-mercaptopyridine N-oxide [BisBDT/PYR] | – | – | < 0.06 µg/mL
5 | CC1(C)S[C@@H]2[C@H](NC(=O)[C@H](N)c3ccccc3)C(=O)N2[C@H]1C(=O)O [ampicillin, Ampicillin] | 2 µg/mL (≈ 5.72 µM) | 4 µg/mL (≈ 11.4 µM) | –
